# Data from the supplement of paper PMC10307832.
# Assays:
# Test in all cases: relative viability (nuclei count vs DMSO), 5 days (fraction); higher = more cells survive
# BX 795 + Linsitinib = compound: O=C(NCCCNc1nc(Nc2cccc(NC(=O)N3CCCC3)c2)ncc1I)c1cccs1 [BX 795] + C[C@]1(O)C[C@@H](c2nc(-c3ccc4ccc(-c5ccccc5)nc4c3)c3c(N)nccn32)C1 [Linsitinib] (partner 1 µM)
# Outline: (§1)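 For relative viability, nuclei counts in treated wells were divided by those in vehicle wells. Lung cancer cell lines had been pin-tool dosed in 1536-well plates the day after seeding and cultured for 5 days, then fixed and stained in one step (final 0.05% Triton X-100, 1% formaldehyde, 1 ug/ml Hoechst) and imaged at 4×. Doses were one drug alone or a fixed anchor-drug dose plus five library-drug doses (not always all listed) in √10 steps, and values are duplicate-plate medians.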
# BX 795 + Foretinib = compound: O=C(NCCCNc1nc(Nc2cccc(NC(=O)N3CCCC3)c2)ncc1I)c1cccs1 [BX 795] + COc1cc2c(Oc3ccc(NC(=O)C4(C(=O)Nc5ccc(F)cc5)CC4)cc3F)ccnc2cc1OCCCN1CCOCC1 [Foretinib] (partner 0.25 µM)
# Outline: as §1
# BX 795 + Tozasertib = compound: O=C(NCCCNc1nc(Nc2cccc(NC(=O)N3CCCC3)c2)ncc1I)c1cccs1 [BX 795] + Cc1cc(Nc2cc(N3CCN(C)CC3)nc(Sc3ccc(NC(=O)C4CC4)cc3)n2)n[nH]1 [Tozasertib] (partner 0.1 µM)
# Outline: as §1
# BX 795 + Olaparib = compound: O=C(NCCCNc1nc(Nc2cccc(NC(=O)N3CCCC3)c2)ncc1I)c1cccs1 [BX 795] + O=C(c1cc(Cc2n[nH]c(=O)c3ccccc23)ccc1F)N1CCN(C(=O)C2CC2)CC1 [Olaparib] (partner 8 µM)
# Outline: as §1
# BX 795 + AZD7762 = compound: O=C(NCCCNc1nc(Nc2cccc(NC(=O)N3CCCC3)c2)ncc1I)c1cccs1 [BX 795] + NC(=O)Nc1cc(-c2cccc(F)c2)sc1C(=O)N[C@H]1CCCNC1 [AZD7762] (partner 0.2 µM)
# Outline: as §1
Cell Line,relative viability (BX 795 + Linsitinib; first compound 0.04 µM),relative viability (BX 795 + Linsitinib; first compound 0.1265 µM),relative viability (BX 795 + Linsitinib; first compound 0.4 µM),relative viability (BX 795 + Linsitinib; first compound 1.265 µM),relative viability (BX 795 + Foretinib; first compound 0.04 µM),relative viability (BX 795 + Foretinib; first compound 0.1265 µM),relative viability (BX 795 + Foretinib; first compound 0.4 µM),relative viability (BX 795 + Foretinib; first compound 1.265 µM),relative viability (BX 795 + Tozasertib; first compound 0.04 µM),relative viability (BX 795 + Tozasertib; first compound 0.1265 µM),relative viability (BX 795 + Tozasertib; first compound 0.4 µM),relative viability (BX 795 + Tozasertib; first compound 1.265 µM),relative viability (BX 795 + Olaparib; first compound 0.04 µM),relative viability (BX 795 + Olaparib; first compound 0.1265 µM),relative viability (BX 795 + Olaparib; first compound 0.4 µM),relative viability (BX 795 + Olaparib; first compound 1.265 µM),relative viability (BX 795 + AZD7762; first compound 0.04 µM),relative viability (BX 795 + AZD7762; first compound 0.1265 µM),relative viability (BX 795 + AZD7762; first compound 0.4 µM),relative viability (BX 795 + AZD7762; first compound 1.265 µM)
COR-L 105,1.08,0.768,0.849,0.447,1.29,0.962,0.861,0.662,0.391,0.362,0.405,0.267,0.705,0.491,0.644,0.562,–,–,–,–
ChaGo-K-1,–,–,–,–,0.993,0.89,0.982,0.767,0.175,0.226,0.205,0.212,0.424,0.447,0.415,0.311,0.797,0.864,0.858,0.815
EKVX,1.1,1.21,0.833,0.839,0.496,0.893,0.516,0.726,0.38,0.471,0.358,0.331,0.833,0.783,0.666,0.807,0.67,0.805,0.671,0.645
EMC-BAC-2,0.79,0.888,0.83,0.615,1.01,1.12,0.914,0.322,0.277,0.362,0.258,0.175,0.563,0.369,0.494,0.323,1.06,1.09,0.945,0.727
EPLC-272H,1.33,–,1.06,0.972,0.739,0.721,0.653,0.527,0.349,0.277,0.294,0.228,0.932,0.681,0.352,0.325,0.215,0.337,0.234,0.259
H3255,1.04,1.07,1.05,0.842,0.965,0.764,1.02,0.848,0.716,0.605,0.773,0.55,0.624,0.608,0.501,0.492,0.933,0.869,0.846,0.859
HARA,0.896,0.966,0.916,0.795,0.914,0.935,0.849,0.31,0.124,0.0907,0.0944,0.0873,0.436,0.328,0.549,0.766,0.149,0.301,0.286,0.387
